Measured values reported in patent US10421774B2 (priority 2016, dated 2019).
pEC50: −log10 of the molar value. Read-outs that look alike come from different tables or passages of the source.

Assays:
Assay in all cases: microbe, parasite or virus in culture
Format in all cases: cell-based, HIV-1
[1] = system: A364V site directed mutant virus; settings: for pEC50: Human immunodeficiency virus 1, MT2, read-out: A364V EC50
Procedure: (§1) Cells. MT-2 cells and 293T cells were obtained from the NIH AIDS Research and Reference Reagent Program. Cell lines were sub-cultured twice a week in either RPMI 1640 (MT-2) or DMEM (293T, HeLa) media supplemented with 10% heat inactivated fetal bovine serum (FBS), 100 units/mL of penicillin G and 100 μg/mL of streptomycin. The DMEM medium was additionally supplemented with 10 mM HEPES buffer, pH 7.55, 2 mM L-glutamine and 0.25 μg/mL of amphotericin B.
(§2) Viruses. NLRepRluc virus contains the Renilla luciferase marker in place of the viral nef gene. The proviral plasmid pNLRepRluc was constructed at Bristol-Myers Squibb, starting from a proviral NL4-3 clone (B subtype) that was obtained from the NIH AIDS Research and Reference Reagent Program. The parental recombinant wild type (WT) virus (NLRepRlucP373S) was derived from NLRepRluc and contains the additional substitution of P373 for serine in Gag (within the SP1 spacer), the most common 373 variation in subtype B. Other recombinant viruses (A364V, V370A/ΔT371 and the “T3325 triple” (T332S/V362I+HIV-1 protease R41G)) were generated by site-directed mutagenesis of plasmid pNLRepRlucP373S to introduce those amino acid substitutions in Gag and protease. Recombinant virus DNA was then used to generate virus stocks by transfection of 293T cells (Lipofectamine PLUS kit, Invitrogen). Titers of virus stocks were determined using a luciferase assay (Dual-Luciferase® Reporter Assay System, Promega, Milwaukee, Wis., USA) endpoint.
(§3) Multiple cycle drug susceptibility assay. Pellets of MT-2 cells were infected with NLRepRlucP373S Gag site-directed viruses, where initial inocula of the reporter strains were normalized using equivalent endpoint luciferase activity signals. Such cell-virus mixtures were resuspended in medium, incubated for 1-hour at 37° C./CO2, and added to compound containing 96-well plates at a final cell density of 10,000 cells per well. The test compounds were 3-fold serially diluted in 100% DMSO, and assayed at a final DMSO concentration of 1%. After 4-5 day incubation at 37° C./CO2, virus yields were determined by Renilla luciferase activity (Dual-Luciferase® Reporter Assay System, Promega). The endpoint luminescence was detected on a Wallac Trilux (PerkinElmer).
(§4) HIV-1 NL4-3 expressing Renilla luciferase gene was converted to the gag V370A/ΔT371 virus by site directed mutagenesis. A364V is a site directed mutant.
(§5) All three recombinant viruses were used as described above in the HIV cell culture assay for the NL4-3 virus.

gag V370A/ΔT371 virus = settings: for pEC50: Human immunodeficiency virus 1, MT2, read-out: V370A/ΔT371 EC50
Procedure: as §1, §2, §3, §4, §5

[2] = system: NLRepRlucP373S recombinant wild type (WT) virus
Procedure: as §1, §2, §3
(§6) The 50% inhibitory concentrations (EC50S) were calculated by using the exponential form of the median effect equation where Percent Inhibition=1/[1+(EC50/drug conc.^m], where m is a parameter that reflects the slope of the concentration-response curve. Background was taken as the residual signal observed upon inhibition at the highest concentration of a control protease inhibitor, NFV (3 μM).
as §6, with “The 90%” for “The 50%”, “concentrations (EC90S)” for “concentrations (EC50S)”, “where ECF=[(F/(100−F)]^1/H·EC50,” for “where Percent Inhibition=1/[1+(EC50/drug conc.^m],”, “where H” for “where m”

[3] = system: T332S/V362I/Pr R41G virus; settings: for pEC50: Human immunodeficiency virus 1, MT2, read-out: T332S/V362I/pr41G EC50
Procedure: as §1, §2, §3
T332sN362I/Pr R41G (N14.3, B Clade) virus′ was obtained as follows: Selection for resistance of HIV-1 strain […] virus with the HIV maturation inhibitor (MI) compound
At passage 8 virus was harvested and sequenced.
as §5

[4] = Human immunodeficiency virus 1, MT2, read-out: WT EC50

With `C=C(C)[C@@H]1CC[C@]2(NC[C@@H](O)C(=O)O)CC[C@]3(C)[C@H](CC[C@@H]4[C@@]5(C)CC=C(C6=CC[C@](COc7ncccc7C(=O)O)(C(=O)O)CC6)C(C)(C)[C@@H]5CC[C@]43C)[C@@H]12` [Example A16, 2-(((R)-1-carboxy-4-((1R,3aS,5aR,5bR,7aR,11aS,11bR,13aR,13bR)-3a-(((R)-2-carboxy-2-hydroxyethyl)amino)-5a,5b,8,8,11a-pentamethyl-1-(prop-1-en-2-yl)-2,3,3a,4,5,5a,5b,6,7,7a,8,11,11a,11b,12,13,13a,13b-octadecahydro-1H-cyclopenta[a]chrysen-9-yl)cyclohex-3-en-1-yl)methoxy)nicotinic acid] the pEC50 [1] was 6.86, the pEC50 (gag V370A/ΔT371 virus) was 7.17 and the pEC50 [2, 4] was 8.00. It also gave a pEC50 [3] of 7.17.
`C=C(C)[C@@H]1CC[C@]2(NCCN3CCS(=O)(=O)CC3)CC[C@]3(C)[C@H](CC[C@@H]4[C@@]5(C)CC=C(C6=CCC(COCc7ccccc7C#N)(C(=O)O)CC6)C(C)(C)[C@@H]5CC[C@]43C)[C@@H]12` (stereo partly shown) [reference compound] gave an EC90 ([1]; Human immunodeficiency virus 1, read-out: A364V EC90) of 228 nM, an EC90 (gag V370A/ΔT371 virus; Human immunodeficiency virus 1, read-out: V370A/ΔT371 EC90) of 2420 nM and a pEC50 ([2]; Human immunodeficiency virus 1, read-out: WT EC50) of 8.52. The EC90 ([3]; Human immunodeficiency virus 1, read-out: T332S/V362I/prR41G EC90) was 2420 nM.
`C=C(C)[C@@H]1CC[C@]2(NCCN3CCS(=O)(=O)CC3)CC[C@]3(C)[C@H](CC[C@@H]4[C@@]5(C)CC=C(C6=CC[C@](COc7ncccc7C(N)=O)(C(=O)O)CC6)C(C)(C)[C@@H]5CC[C@]43C)[C@@H]12` [Example 24, (R)-1-(((3-carbamoylpyridin-2-yl)oxy)methyl)-4-((1R,3aS,5aR,5bR,7aR,11aS,11bR,13aR,13bR)-3a-((2-(1,1-dioxidothiomorpholino)ethyl)amino)-5a,5b,8,8,11a-pentamethyl-1-(prop-1-en-2-yl)-2,3,3a,4,5,5a,5b,6,7,7a,8,11,11a,11 b,12,13,13a,13b-octadecahydro-1H-cyclopenta[a]chrysen-9-yl)cyclohex-3-ene-1-carboxylic acid] showed a pEC50 [1] of 8.10, a pEC50 (gag V370A/ΔT371 virus) of 7.92 and a pEC50 [2, 4] of 8.70. The pEC50 [3] was 7.92.
With `C=C(C)[C@@H]1CC[C@]2(NCC[C@]3(O)CC[C@H](S(C)(=O)=O)CC3)CC[C@]3(C)[C@H](CC[C@@H]4[C@@]5(C)CC=C(C6=CC[C@](COc7ncccc7C#N)(C(=O)O)CC6)C(C)(C)[C@@H]5CC[C@]43C)[C@@H]12` [Example A6, (R)-1-(((3-cyanopyridin-2-yl)oxy)methyl)-4-((1R,3aS,5aR,5bR,7aR,11aS,11bR,13aR,13bR)-3a-((2-((1r,4S)-1-hydroxy-4-(methylsulfonyl)cyclohexyl)ethyl)amino)-5a,5b,8,8,11a-pentamethyl-1-(prop-1-en-2-yl)-2,3,3a,4,5,5a,5b,6,7,7a,8,11,11a,11b,12,13,13a,13b-octadecahydro-1H-cyclopenta[a]chrysen-9-yl)cyclohex-3-enecarboxylic acid] the pEC50 [1] was 8.30, the pEC50 (gag V370A/ΔT371 virus) was 8.10 and the pEC50 [2, 4] was 8.70. For the same compound, the pEC50 [3] was 8.10.
Compound `C=C(C)[C@@H]1CC[C@]2(NC[C@@H](O)CO)CC[C@]3(C)[C@H](CC[C@@H]4[C@@]5(C)CC=C(C6=CC[C@](COc7ncccc7C#N)(C(=O)O)CC6)C(C)(C)[C@@H]5CC[C@]43C)[C@@H]12` [Example A7, (R)-1-(((3-cyanopyridin-2-yl)oxy)methyl)-4-((1R,3aS,5aR,5bR,7aR,11aS,11bR,13aR,13bR)-3a-(((R)-2,3-dihydroxypropyl)amino)-5a,5b,8,8,11a-pentamethyl-1-(prop-1-en-2-yl)-2,3,3a,4,5,5a,5b,6,7,7a,8,11,11a,11b,12,13,13a,13b-octadecahydro-1H-cyclopenta[a]chrysen-9-yl)cyclohex-3-enecarboxylic acid] has a pEC50 [1] of 6.32, a pEC50 (gag V370A/ΔT371 virus) of 8.30 and a pEC50 [2, 4] of 8.52. It also gave a pEC50 [3] of 8.30.
Work on `C=C(C)[C@@H]1CC[C@]2(NCCN3CCS(=O)(=O)CC3)CC[C@]3(C)[C@H](CC[C@@H]4[C@@]5(C)CC=C(C6=CCC(CCOc7ncccc7C#N)(C(=O)O)CC6)C(C)(C)[C@@H]5CC[C@]43C)[C@@H]12` (stereo partly drawn) [Example A22, 1-(2-((3-cyanopyridin-2-yl)oxy)ethyl)-4-((1R,3aS,5aR,5bR,7aR,11aS,11bR,13aR,13bR)-3a-((2-(1,1-dioxidothiomorpholino)ethyl)amino)-5a,5b,8,8,11a-pentamethyl-1-(prop-1-en-2-yl)-2,3,3a,4,5,5a,5b,6,7,7a,8,11,11a,11b,12,13,13a,13b-octadecahydro-1H-cyclopenta[a]chrysen-9-yl)cyclohex-3-ene-1-carboxylic acid] yielded a pEC50 [1] of 7.57, a pEC50 (gag V370A/ΔT371 virus) of 7.89 and a pEC50 [2, 4] of 8.40. It also gave a pEC50 [3] of 7.89.
In the case of `C=C(C)[C@@H]1CC[C@]2(NCCN3CCS(=O)(=O)CC3)CC[C@]3(C)[C@H](CC[C@@H]4[C@@]5(C)CC=C(C6=CCC(COc7nsnc7C)(C(=O)O)CC6)C(C)(C)[C@@H]5CC[C@]43C)[C@@H]12` (stereo partly drawn) [Example 5, 4-((1R,3aS,5aR,5bR,7aR,11aS,11bR,13aR,13bR)-3a-((2-(1,1-dioxidothiomorpholino)ethyl)amino)-5a,5b,8,8,11a-pentamethyl-1-(prop-1-en-2-yl)-2,3,3a,4,5,5a,5b,6,7,7a,8,11,11a,11b,12,13,13a,13b-octadecahydro-1H-cyclopenta[a]chrysen-9-yl)-1-(((4-methyl-1,2,5-thiadiazol-3-yl)oxy)methyl)cyclohex-3-ene-1-carboxylic acid], the pEC50 [1] was 7.82, the pEC50 (gag V370A/ΔT371 virus) was 7.82 and the pEC50 [2, 4] was 8.52. It also gave a pEC50 [3] of 7.82.
`C=C(C)[C@@H]1CC[C@]2(NCCN3CCS(=O)(=O)CC3)CC[C@]3(C)[C@H](CC[C@@H]4[C@@]5(C)CC=C(C6=CC[C@](COc7ncccc7C(=O)OC)(C(=O)O)CC6)C(C)(C)[C@@H]5CC[C@]43C)[C@@H]12` [Example 27] showed a pEC50 [1] of over 7.30, a pEC50 (gag V370A/ΔT371 virus) of over 7.30 and a pEC50 [2, 4] of over 7.30. For the same compound, the pEC50 [3] was over 7.30.
Compound `C=C(C)[C@@H]1CC[C@]2(NC[C@@H](O)COC)CC[C@]3(C)[C@H](CC[C@@H]4[C@@]5(C)CC=C(C6=CC[C@](COc7ncccc7C#N)(C(=O)O)CC6)C(C)(C)[C@@H]5CC[C@]43C)[C@@H]12` [Example A9, (R)-1-(((3-cyanopyridin-2-yl)oxy)methyl)-4-((1R,3aS,5aR,5bR,7aR,11aS,11bR,13aR,13bR)-3a-(((R)-2-hydroxy-3-methoxypropyl)amino)-5a,5b,8,8,11a-pentamethyl-1-(prop-1-en-2-yl)-2,3,3a,4,5,5a,5b,6,7,7a,8,11,11a,11b,12,13,13a,13b-octadecahydro-1H-cyclopentalalchrysen-9-yl)cyclohex-3-enecarboxylic acid] has a pEC50 [1] of 6.52, a pEC50 (gag V370A/ΔT371 virus) of 7.92 and a pEC50 [2, 4] of 8.52. For the same compound, the pEC50 [3] was 7.92.
Compound `C=C(C)[C@@H]1CC[C@]2(NCC[C@]3(O)CC[C@H](S(C)(=O)=O)CC3)CC[C@]3(C)[C@H](CC[C@@H]4[C@@]5(C)CC=C(C6=CCC(COc7ccccn7)(C(=O)O)CC6)C(C)(C)[C@@H]5CC[C@]43C)[C@@H]12` (stereo partly drawn) [Example A2, 4-((1R,3aS,5aR,5bR,7aR,11aS,11bR,13aR,13bR)-3a-((2-((1r,4S)-1-hydroxy-4-(methylsulfonyl)cyclohexyl)ethyl)amino)-5a,5b,8,8,11a-pentamethyl-1-(prop-1-en-2-yl)-2,3,3a,4,5,5a,5b,6,7,7a,8,11,11a,11 b,12,13,13a,13b-octadecahydro-1H-cyclopenta[a]chrysen-9-yl)-1-((pyridin-2-yloxy)methyl)cyclohex-3-enecarboxylic acid] has a pEC50 [1] of 7.85, a pEC50 (gag V370A/ΔT371 virus) of 8.10 and a pEC50 [2, 4] of 9.00. It also gave a pEC50 [3] of 8.10.
